Patent US6582910B1, “WbpP and method for assay of WbpP” (priority 1999, dated 2003)
Entries after “also recorded” stand apart in the source; their conditions may differ.

Experiments:
WbpP [1] = molecular target: T1, WbpP (Pseudomonas aeruginosa, UniProt Q8KN66); test: Requirement for NAD+ or divalent cations for enzymatic activity (capillary electrophoresis); type: biochemical; conditions: NAD+ 1 mM, divalent cations 4 mM, acetylated or non-acetylated substrates
T1 construct: made in house; host or cells: E. coli BL21(DE3)pLysS, pET23 derivative
Procedure: Study of the Requirement for NAD+ or divalent cations for enzymatic activity—To access the requirement for NAD+ or divalent cations for the enzymatic activity of WbpP, reactions were carried out with or without NAD+ (1 mM final concentration), and with or without divalent cations (4 mM final concentration of MnCl2, MgCl2, or CaCl2) and monitored by capillary electrophoresis as described above.

WbpP [2] = molecular target: T1, WbpP; test: DMAB spectrophotometric assay of epimerisation of UDP-GlcNAc and UDP-GalNAc; type: biochemical; conditions: for Specific activity: 0.75 mM substrate
Procedure: Determination of the enzymatic conversion of UDP-GlcNAc and UDP-GalNAc using p-dimethylaminobenzaldehyde (DMAB)—Reactions were performed with a total reaction volume of 35 μl at 37° C. in 20 mM Tris pH 8 unless stated otherwise. The specific amount of enzyme used, substrate concentrations, and incubation time are indicated in the legend of each figure. The reactions were stopped by acid hydrolysis of the UDP moiety of the substrate. For this purpose, the samples were acidified to pH 2 by addition of 7 μl of HCl 0.1 N, boiled for 6 min, and neutralised by addition of 7 μl of NaOH 0.1 N. For the spectrophotometric quantification of GalNAc and GlcNAc, the reagent DMAB was prepared at 10% in glacial acetic acid/HCl 9/1 v/v, and further diluted 1/10 in glacial acetic acid before use (Reissig et al. (1955)). For the assay itself, 100 μl of 0.2 M sodium tetraborate pH 9.1 were added to 50 μl of quenched and neutralised enzymatic reactions and boiled immediately for 3 min. 40 μl of this mixture were transferred to a microtitration plate and 200 μl of DMAB reagent were added. After incubation for 30 min at 37° C., the OD595 nm was recorded using a microplate reader. For practical reasons, the DMAB assay was carried out using a wavelength setting of 595 nm in the spectrophotometer. […] The assay was done in duplicate for each reaction tested. Standard curves were prepared using UDP-GlcNAc and UDP-GalNAc that were subjected to acid hydrolysis in the same conditions as described above.
FIG. 3: Study of the epimerisation of UDP-GlcNAc and UDP-GalNAc by WbpP using the DMAB assay. Panel A, standard curves obtained with each compound separately. Open circles, UDP-GlcNAc; Open squares, UDP-GalNAc. Panel B, comparison of the experimental data (closed triangles) obtained for mixtures of UDP-GalNAc and UDP-GlcNAc of different proportions (constant total sugar-nucleotide concentration of 0.75 mM) and the theoretical data (open triangles) calculated from the standard curves from panel 3A. 3C: Activity of WbpP as a function of the amount of enzyme added. The reactions were performed with […] substrate in a total volume of 35 μl for 8 min at 37° C. Closed circles, UDP-GlcNAc; Closed squares, UDP-GalNAc.
FIG. 6: Determination of the optimum pH and temperature for the epimerisation of UDP-GlcNAc by WbpP using the DMAB assay: For the pH study (panel A), the reactions were performed with 5 mM UDP-GlcNAc and 39 ng of enzyme in a total volume of 44 μl and incubated for 10 min at 37° C. The pH between 5 and 7 were obtained with 50 mM sodium acetate buffer (open circles), whereas pH 7 to 10 were obtained with 50 mM Tris-HCl (closed circles). For the temperature study (panel B), the reactions were performed in 50 mM Tris-HCl pH 8 with 5 mM UDP-GlcNAc and 0.78 ng of enzyme in a total volume of 44 μl and 30 min incubation. For both panels, two enzymatic reactions were set up in each experimental condition and two determinations of residual UDP-GlcNAc were made per reaction. Each point represents the average of the four determinations.

WbpP [3] = molecular target: T1, WbpP; test: Capillary electrophoresis, kinetic parameters for UDP-GlcNAc and UDP-GalNAc; type: biochemical; conditions: acetylated substrates; for kcal: CE; for Km / Vmax: initial rates, 3 min, 37° C., 20 mM Tris pH 8, CE
Procedure: Determination of the kinetic parameters for UDP-GlcNAc and UDP-GalNAc by capillary electrophoresis—Reactions were performed at 37° C. in 20 mM Tris pH 8 with a total reaction volume of 44 μl. The amount of purified enzyme added was 234 ng and 117 ng for reaction with UDP-GlcNAc and UDP-GalNAc, respectively. After incubation at 37° C. for the required amount of time, the reactions were quenched by boiling the sample for 6 min. Time course studies were performed with final sugar-nucleotide concentrations of 0.075 and 1.75 mM. Samples were quenched after 0, 2, 4, 6, 8, 10 and 15 min. […] Capillary electrophoresis (CE) analysis was performed using a P/ACE 5000 system (Beckman, Fullerton, Calif.) with UV detection. The running buffer was 25 mM sodium tetraborate pH 9.4. The capillary was bare silica 75 μm×57 cm, with a detector at 50 cm. The capillary was conditioned before each run by washing with 0.2 M NaOH for 2 min, water for 2 min, and running buffer for 2 min. Samples were introduced by pressure injection for 4 s and the separation was performed at 22 kV. Peak integration was done using the Beckman P/ACE Station software. The calculation of kinetic parameters was done using the PRISM program.
FIG. 4: Capillary electrophoresis analysis of the epimerisation of UDP-GlcNAc and UDP-GalNAc by WbpP at equilibrium. The reactions were performed in a total volume of 35 μl with 1.5 mM substrate and 17 μg of enzyme. They were incubated at 37° C. for 2 h. 1, UDP-GalNAc alone; 2, UDP-GlcNAc alone; 3, UDP-GlaNAc+WbpP; 4, UDP-GlcNAc+WbpP.
FIG. 5: Time Course of epimerisation of UDP-GlcNAc and UDP-GalNAc by WbpP as measured by capillary electrophoresis. Reactions were performed at 37° C. in 20 mM Tris pH 8 with a total reaction volume of 44 μl. The amount of purified enzyme added was 234 ng and 117 ng for reaction with UDP-GlcNAc and UDP-GalNAc, respectively. Closed circles, UDP-GlcNAc 0.075 mM; Closed squares, UDP-GalNAc 0.075 mM; Open circles, UDP-GlcNAc 1.75 mM; Open squares, UDP-GalNAc 1.75 mM.

[4] = Storage stability of purified WbpP; type: physicochemical; conditions: −20° C. in 25% glycerol or 20% adonitol in Tris pH 8
Procedure: Purification of WbpP by chromatography—Cells sedimented from 100 ml induced culture were resuspended in 10 ml of buffer A (5 mM imidazole, 20 mM Tris pH 8, 0.1 M NaCl). The cells were briefly sonicated (macrotip, sonicator XL2020 Heat systems Incorporated, power set to 4, 2 min total, 5 sec on, 5 sec off) on ice. Cell debris were removed by centrifugation at 13000×g for 15 min at 4° C. and the supernatant was applied to a 3 ml fast flow cielating sepharose column (Amersham-Pharmacia, Quebec) previously loaded with nickel sulfate (30 ml of 0.1 M) and equilibrated with 5 column volumes (CV) of buffer A. Loading of the sample as well as all washing and elution steps were done by gravity. After loading of the sample, the column was washed with 10 CV of buffer A and 5 CV of buffer B (20 mM imidazole, 20 mM Tris pH 8, 0.1M NaCl). Elution was carried out with 3 CV of buffer C (1 M imidazole, 20 mM Tris pH 8, 0.5 M NaCl 0.1 M). Fractions were collected every 1 CV. […] This fraction was subjected to further purification by anion exchange chromatography after dilution 1/30 in 50 mM Tris pH 8. Half of it was loaded onto a 1 ml column of Q Sepharose fast flow (Pharmacia). The column was washed with 30 CV of Tris buffer and the protein was eluted with 3 CV of 50 mM Tris pH 8, 0.5 M NaCl. […] Protein quantitation was done using the BCA reagent (Pierce, Rockford, Ill.).

[5] = molecular target: the molecule itself; test: gel filtration on G100 Sephadex, self-association (homodimer)
[6] = fraction: anion exchange (purified WbpP)

With `[Ca+2].[Cl-].[Cl-]` [Ca^2+] the “Necessity of addition to the reaction mixture for the C4 epimerase activity” value (“Necessity of addition” for short) (WbpP [1]) was “not necessary; also recorded: active without requiring addition”.

With `[Cl-].[Cl-].[Mg+2]` [Mg^2+] the “Necessity of addition” value (WbpP [1]) was “active without requiring addition” and the “Necessity of addition” value (WbpP [1]; listed as Mg2^1) was “not necessary”.

With `[Cl][Mn][Cl]` [Mn^2+] the “Necessity of addition” value (WbpP [1]) was “not necessary; also recorded: active without requiring addition”.

With `NC(=O)c1ccc[n+]([C@@H]2O[C@H](COP(=O)([O-])OP(=O)(O)OC[C@H]3O[C@@H](n4cnc5c(N)ncnc54)[C@H](O)[C@@H]3O)[C@@H](O)[C@H]2O)c1` [NAD^+] the “Necessity of addition” value (WbpP [1]) was “active without requiring addition” and the “Necessity of addition” value (WbpP [1]; listed as NAD^1) was “not necessary”.

In the case of `CC(=O)N[C@H]1[C@@H](OP(=O)(O)OP(=O)(O)OC[C@H]2O[C@@H](n3ccc(=O)[nH]c3=O)[C@H](O)[C@@H]2O)O[C@H](CO)[C@H](O)[C@@H]1O` [UDP-GalNAc, UDP-N-acetylgalactosamine], the “Maximum substrate conversion (at equilibrium)” value (WbpP [2]; acetylated substrates, epimerisation by WbpP) is reported as roughly 70%, the Specific activity (WbpP [2]; fraction: IMAC) is reported as 4.6 U/mg and the Specific activity (WbpP [2]; [6]) is reported as 5.6 U/mg. For the same molecule, the Specific activity (WbpP [2]; fraction: soluble fraction) was 3.4 U/mg, the Specific activity (WbpP [2]; fraction: total cell extract) was 2.6 U/mg and the “Specific activity of purified WbpP” value (WbpP [2]) was 5.6 Units/mg. The kcal (WbpP [3]) was 271 ± 7 min⁻¹, the Km (WbpP [3]) was 197 µM and the Vmax (WbpP [3]) was 840 ± 25 pmol/min.

With `CC(=O)N[C@H]1[C@@H](OP(=O)(O)OP(=O)(O)OC[C@H]2O[C@@H](n3ccc(=O)[nH]c3=O)[C@H](O)[C@@H]2O)O[C@H](CO)[C@@H](O)[C@@H]1O` [UDP-GlcNAc, UDP-N-acetylglucosamine] the Specific activity (WbpP [2]; fraction: IMAC) was 2.0 U/mg, the Specific activity (WbpP [2]; [6]) was 2.3 U/mg and the Specific activity (WbpP [2]; fraction: soluble fraction) was 1.1 U/mg. The Specific activity (WbpP [2]; fraction: total cell extract) was 0.2 U/mg, the “Specific activity of purified WbpP” value (WbpP [2]) was 2.3 Units/mg and the kcal (WbpP [3]) was 120 ± 3 min⁻¹. For the same molecule, the Km (WbpP [3]) was 224 µM and the Vmax (WbpP [3]) was 741 ± 22 pmol/min.

B1: WbpPO6 carrying a N-terminal hexahistidine tag (enzyme)
chain: MHHHHHHGSMGMMSRYEELRKELPAQPKVWLITGVAGFIGSNLLETLLKLDQKVVGLDNFATGHQRNLDEVRSLVSEKQWSNFKFIQGDIRNLDDCNNACAGVDYVLHQAALGSVPRSINDPITSNATNIDGFLNMLIAARDAKVQSFTYAASSSTYGDHPGLPKVEDTIGKPLSPYAVTKYVNELYADVFSRCYGFSTIGLRYFNVFGRRQDPNGAYAAVIPKWTSSMIQGDDVYINGDGETSRDFCYIENTVQANLLAATAGLDARNQVYNIAVGGRTSLNQLFFALRDGLAENGVSYHREPVYRDFREGDVRHSLADISKAAKLLGYAPKYDVSAGVALAMPWYIMFLK
notes: Expressed in E. coli BL21(DE3)pLysS from a pET23 derivative and purified by nickel chelation and anion exchange; In the Western immunoblot it stood as the SDS-denatured single chain; this is not a protein partner; also called WbpP epimerase; UDP-GlcNAc C4 epimerase
For B1, the “pH with significant activity” value (WbpP [2]; epimerisation of UDP-GlcNAc) was greater than 6.5, the Activity after storage [4] was “without any significant loss of activity” and the binding result [5] was “binds”.
